{
  "source": "paper PMC5736175",
  "about": "“Nicotinic alpha 7 receptor agonists EVP-6124 and BMS-933043, attenuate scopolamine-induced deficits in visuo-spatial paired associates learning” (PLoS ONE, 2017)",
  "key": {"[1]": {"parameters": "method as in PMID 25438724", "conditions": "20 mg dose (maximal DSST effects), cited from earlier work"}, "5-HT3 receptor": {"test_system": "5-HT3 receptor", "conditions": "cited from earlier work"}, "[2]": {"assay": "Plasma pharmacokinetics in satellite animals (LC-MS/MS), 60 min after i.m. dose", "conditions": "individual subjects", "protocol": "For all compounds, plasma pharmacokinetic studies were conducted in a separate cohort of cynomolgus monkeys (N = 2–3 subjects per dose) before beginning vsPAL testing to help guide dose selection. Blood samples were obtained with the animals awake and sitting in a primate chair.\n(§1) Plasma concentrations of test compounds were determined using LC-MS/MS assays. In brief, 50 μL plasma and sample containing compounds was extracted by protein precipitation method with 150 μL acetonitrile containing an internal standard. A 5 μL sample of supernatant was injected into the LC-MS/MS system. Analytes were separated by reversed phase chromatography and detection of each analyte was achieved through selected reaction monitoring mode of mass spectrometry. Samples were quantified by calculated peak area ratio of analyte and internal standard against a calibration curve."}, "human nAChR α7 [3]": {"test_system": "human nAChR α7", "parameters": "method as in PMID 27467081", "conditions": "intrinsic activity; HEK293 cells expressing human nAChR α7; cited from earlier work"}, "[4]": {"assay": "Plasma concentration in vsPAL subjects immediately after completion of testing (LC-MS/MS)", "conditions": "individual subjects", "protocol": "For all compounds, plasma pharmacokinetic studies were conducted in a separate cohort of cynomolgus monkeys (N = 2–3 subjects per dose) before beginning vsPAL testing to help guide dose selection. Blood samples were obtained with the animals awake and sitting in a primate chair. For most test sessions with BMS-933043 and EVP-6124, plasma samples were also taken from a subset of vsPAL subjects (N = 4–5) immediately after completion of testing (mean (SD) sample collection time = 69.8 (9.8) min post injection).\nas §1"}, "human nAChR α7 [5]": {"test_system": "human nAChR α7", "parameters": "method as in PMID 20959364, PMID 22085888", "conditions": "xenopus oocytes expressing human nAChR α7; cited from earlier work"}},
  "note": "Values joined by “and” are separate entries in the source; they are usually repeats but may differ in a detail not shown here. Identical values can stand only once.",
  "data": [
    {"smiles": "Cl.O=C(N[C@H]1CN2CCC1CC2)c1cc2cccc(Cl)c2s1", "note": "[EVP-6124, (R)-7-chloro-N-(quinuclidin-3-yl)benzo[b]thiophene-2-carboxamide HCl]", "values": [
      {"measurement": "plasma Cmax", "setting": "[1]", "result": 10.4, "unit": "ng/mL"},
      {"measurement": "Cmax", "setting": "[1]; read-out: plasma Cmax", "result": 32, "unit": "nM"},
      {"measurement": "5-HT3 receptor antagonism", "setting": "5-HT3 receptor", "result": "potent 5-HT3 receptor antagonists"},
      {"measurement": "nM total compound in plasma from satellite animals, 60 min", "setting": "[2]; 0.03 mg/kg i.m.", "result": "4.1 nM and 3.5 nM"},
      {"measurement": "nM total compound in plasma from satellite animals, 60 min", "setting": "[2]; 0.10 mg/kg i.m.", "result": 9.5, "unit": "nM"},
      {"measurement": "nM total compound in plasma from satellite animals, 60 min", "setting": "[2]; 0.30 mg/kg i.m.", "result": 39.6, "unit": "nM"},
      {"measurement": "nM total compound in plasma from satellite animals, 60 min", "setting": "[2]; 1.00 mg/kg i.m.", "result": 103.0, "unit": "nM"},
      {"measurement": "net charge relative to acetylcholine", "setting": "human nAChR α7 [3]", "result": 136, "unit": "%"},
      {"measurement": "peak current response relative to acetylcholine", "setting": "human nAChR α7 [3]", "result": 32, "unit": "%"},
      {"measurement": "nM total compound in plasma post session", "setting": "[4]; 0.003 mg/kg i.m.", "result": "0.5 nM and 1.4 nM and 1.6 nM and 1.1 nM and 0.496 nM"},
      {"measurement": "nM total compound in plasma post session", "setting": "[4]; 0.01 mg/kg i.m., row", "result": "1.526 nM and 1.174 nM and 1.539 nM"},
      {"measurement": "nM total compound in plasma post session", "setting": "[4]; 0.03 mg/kg i.m.", "result": "4.44 nM and 6.8 nM and 3.56 nM"},
      {"measurement": "nM total compound in plasma post session", "setting": "[4]; 0.10 mg/kg i.m.", "result": "14.8 nM and 14.9 nM and 11.8 nM and 10.9 nM"},
      {"measurement": "nM total compound in plasma post session", "setting": "[4]; 0.30 mg/kg i.m.", "result": "76.7 nM and 38.4 nM and 48.3 nM and 47.3 nM"},
      {"measurement": "nM total compound in plasma post session", "setting": "[4]; 1.00 mg/kg i.m.", "result": "196 nM and 145 nM and 188 nM and 192 nM"},
      {"measurement": "maximal peak current, % of the acetylcholine response", "setting": "human nAChR α7 [5]", "result": 80, "unit": "%"}
    ]}
  ]
}
